The subject of one series is human albumin. Kind of series: protein binding by the ultracentrifuging method. It counts as in vitro ADME. The conditions noted are these: same protein and equivalent substance concentration. The text has this:
Another interesting criterion for the activity of a pharmacon is protein binding. It is known that, in the serum, pharmacons are partly bound to protein and it is only those fractions that are not bound to protein which are responsible for the onset of biological activity. […] Where human albumin is used, the differences amount to about 60%, in other words, for the same protein concentration and an equivalent substance concentration, the values for non-protein-bound I are about 60% higher than those of II. The values found for II are consistent with those described in the literature (cf. E. Hvidberg et al, Eur. J. clin. Pharmacol. 4 (1972), 119). Accordingly, I can be expected to show greater activity in this test as well, i.e. a smaller dosage of I is required which can again be of advantage in toxicological terms.

Series [1] concerns formalin oedema of the paw. Put plainly: formalin oedema on the paw of a rat. The conditions noted are these: once orally. It counts as in vivo. The text has this: (§1) Furthermore, with two other forms of inflammation, the inflammations produced with formalin and carrageenin on the paw of a rat, the oedema-inhibiting efficiency of I is stronger than that of II. […] These differences are also statistically significant.

Series [2] can be described thus: acute oral toxicity (LD50), mouse. As to conditions: in vivo, single oral administration, I given as sodium salt. The protocol: (§2) The toxicity data (LD50) of both compounds are as follows:
(§3) As regards I, after single oral administration of 55.5 mg/kg to the mouse and 38.9 mg/kg to the rat (using the sodium salt of I). The corresponding data for II are 18.4 and 24.5 mg/kg, respectively.

Series [3] concerns sulphydryl groups present in the serum. Put plainly: Gerber method: reaction velocity of serum sulphydryl groups with 2,2'-dinitro-5,5-dithiobenzoic acid. As to conditions: concentration range 0.5 to 3 mMol/liter. It counts as biochemical. The text has this: Another characteristic test for determining the activity of non-steroid antiphlogistic substances is the method described by D. A. Gerber, N. Cohen and R. Giustra (cf. Biochem. Pharmacol. 16 (1967) 115) of influencing the physical-chemical behaviour of native protein, for example influencing the reaction velocity of the sulphydryl groups present in the serum with 2,2'-dinitro-5,5-dithiobenzoic acid. […] Since, according to Gerber et al, (loc. cit.), the percentage increase in reaction velocity is directly proportional to antiphlogistic activity, a greater activity of I by comparison with II can also be derived from this […] test; this applies above all in the lower concentration ranges (105:39) which come closest to the therapeutically attainable concentrations. In this case, too, the intact compound I can be shown to be the only active component.

The nature of series [4]: acute oral toxicity (LD50), rat. As to conditions: in vivo, single oral administration, I given as sodium salt. The protocol: as §2, §3
Another series relates to adjuvant arthritis. Kind of series: arthritis produced in the rat with Freud's adjuvants. The format is in vivo.
Series [5] relates to carrageenin oedema of the paw. Put plainly: carrageenin oedema on the paw of a rat. It counts as in vivo. The conditions noted are these: once orally.
Source text: as §1
Background: Carrageenan injected into the paw causes an acute inflammation.

The nature of series [6]: resorption after oral administration in dogs. It counts as in vivo. The conditions noted are these: dog.
In another series the test system is kaolin oedema of the paw. Kind of series: kaolin oedema of the paw of a rat. It counts as in vivo. As to conditions: for ED50: read-out: ED50 (dose which reduces the oedemas by half as compared with a control group).
The conditions of series [7]: cited from earlier work.
In the next series the test system is protein. Put plainly: Mizushima's Test (inhibition of protein hazing). It counts as biochemical. As to the method:
It was also possible to confirm the superiority of I over II in Mizushima's Test in which potent antiphlogistics are known to inhibit protein hazing directly proportional to their antiphlogistic potency (cf. Arch. int. Pharmacodyn. 149 (1964), 1, and 157 (1965), 115).
A DE50 of 0.07 mg/ml was measured for the sodium salt of I, in other words the level of protein hazing was inhibited by 50% at this concentration.

For series [8] the following is noted: patients, relatively slight side effects and serious cases; cited from earlier work.
Series [9] can be described thus: stability of the dissolved sodium salt in water or water/alcohol. It counts as physicochemical. The conditions noted are these: aqueous or aqueous-alcoholic solution. The text has this: the free acid I can be converted into its salts in a manner known per se. Pharmacologically acceptable and conventional inorganic and organic bases can be considered for this purpose.

The structures appear in SMILES notation. Counter-ions that a name gives are not always drawn. Like-named read-outs stand apart in the source and are kept apart here.

The LD50 is the dose expected to kill half of the subjects tested. In general, ED50 refers to the dose that gives a 50% effect, or the effect in half of the subjects.

`COc1ccc2c(c1)c(CC(=O)OCC(=O)O)c(C)n2C(=O)c1ccc(Cl)cc1` [I, [1-(p-chlorobenzoyl)-5-methoxy-2-methyl-3-indole]-acetoxyacetic acid]: in the series with human albumin, the “increase of non-protein-bound fraction over II” value is given as “about 60%”. Besides, in series [1] (1.5 mg/kg), the “inhibition of formalin oedema” value is on record as 25%. The LD50 in series [2] is 55.5 mg/kg. Also, the “increase in reaction velocity of serum sulphydryl groups” value in [3] is given as 105-335%. In [4], the LD50 came to 38.9 mg/kg. Further, the “antiphlogistic effect on adjuvant arthritis compared with II” value in the series on adjuvant arthritis (oral, daily dose 3.5 mg/kg of I versus equimolar 3 mg/kg of II) was “decidedly stronger than that of the equimolar daily dose of 3 mg/kg of II”. The “inflammation-inhibiting efficiency on adjuvant arthritis” value with adjuvant arthritis (primary and generalised inflammation symptoms) is on record as “strong inflammation-inhibiting efficiency”. Further, the “inhibition of carrageenin oedema” value in [5] (1.5 mg/kg) amounted to 62%. Moreover, in series [6], the “detection as an unchanged molecule in the organism” value is on record as “can be detected as an unchanged molecule for several hours in the organism” and the “resorption after oral administration” value is “well resorbed after oral administration”. In addition, the ED50 with kaolin oedema of the paw (rat, single oral application, range of confidence (P = 5%): I 0.37 to 0.67, II 0.83 to 1.40) stood at 0.5 mg/kg. The “relative effectiveness I versus II on kaolin oedema” value in the series on kaolin oedema of the paw (rat, single oral, from ED50) is on record as “about twice as effective as II”.

For the compound `COc1ccc2c(c1)c(CC(=O)O)c(C)n2C(=O)c1ccc(Cl)cc1` [II, 1-(p-chlorobenzoyl)-5-methoxy-2-methyl-3-indole acetic acid, reference compound], in series [1] (1.6 mg/kg), the “inhibition of formalin oedema” value is reported as 13.8%. The values for the LD50 in [2] and in series [4] were 18.4 mg/kg and 24.5 mg/kg, respectively. In series [7], the “patients in whom therapy had to be discontinued because of the side effects” value is reported as roughly 10%. Besides, the “increase in reaction velocity of serum sulphydryl groups” value in series [3] is given as 39-272%. For the same compound, the “inhibition of carrageenin oedema” value in [5] (1.6 mg/kg) is listed as 42%. For the same compound, the “DE50 (concentration inhibiting the level of protein hazing by 50%)” value in the series with protein was determined as 0.13 mg/mL. The side effects result in series [8] is “neurosensitive disturbances such as headaches, vertigos and concentration difficulties, digestive complaints with loss of appetite, sickness, stomach pains, diarrhoea and, finally, some serious cases of intestinal bleeding, stomach ulcers and, occasionally, neurological deficiency symptoms”. The 50% effective dose (ED50) in the series with kaolin oedema of the paw (Rattus norvegicus, po) was 1.04 mg/kg.

Turning to `COc1ccc2c(c1)c(CC(=O)OCC(=O)O)c(C)n2C(=O)c1ccc(Cl)cc1` [sodium salt of I], the “stability/clarity of solution of the sodium salt” value in series [9] is given as “the solution remains clear for a considerable period of time”. Also, the “DE50 (concentration inhibiting the level of protein hazing by 50%)” value in the series with protein was found to be 0.07 mg/mL.

Take `COc1ccc2c(c1)c(CC(=O)O)c(C)n2C(=O)c1ccc(Cl)cc1` [sodium salt of the known compound II, reference compound]: in series [9], the “stability/clarity of solution of the sodium salt” value was “almost immediately, a clouding of the solution and the compound II begins to decompose”.
